Experimental data taken from patent US20250098679A1, “HERBICIDAL PYRIDONE DERIVATIVES” (SYNGENTA CROP PROTECTION AG, priority 2021, published 2025).

What was measured:
Format in all cases: in vivo
Conditions in all cases: evaluated after 13 days
[1] = tested on: Amaranthus retoflexus (AMARE); experiment: Pre-emergence Test, Amaranthus retoflexus (AMARE)
[2] = tested on: Echinochloa crus-galli (ECHCG); experiment: Pre-emergence Test, Echinochloa crus-galli (ECHCG)
[3] = tested on: Ipomoea hederacea (IPOHE); experiment: Post-emergence Test, Ipomoea hederacea (IPOHE); set-up: key to percentage damage caused to the plant, IPOHE (five-point scale): 5=81-100%, 4=61-80%, 3=41-60%, 2=21-40%, 1=0-20% damage
Outline: (§1)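 Application was a spray of acetone/water (50:50) with 0.5% Tween 20 onto pots of test species sown in standard soil. Unless otherwise stated, the rate was 1000 g/ha. After 13 days under glasshouse conditions (24/16 °C, 65% humidity), injury was scored from 1 (0-20%) to 5 (81-100%).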

[4] = tested on: Amaranthus retoflexus (AMARE); experiment: Post-emergence Test, Amaranthus retoflexus (AMARE); set-up: key to percentage damage caused to the plant, AMARE (five-point scale): 5=81-100%, 4=61-80%, 3=41-60%, 2=21-40%, 1=0-20% damage
Outline: as §1

[5] = tested on: Amaranthus palmeri (AMAPA); experiment: Post-emergence Test, Amaranthus palmeri (AMAPA); set-up: key: 5=81-100%, 4=61-80%, 3=41-60%, 2=21-40%, 1=0-20% damage
Outline: as §1

[6] = tested on: Ipomoea hederacea (IPOHE); experiment: Pre-emergence Test, Ipomoea hederacea (IPOHE)
Setaria faberi (SETFA) [7] = experiment: Pre-emergence Test, Setaria faberi (SETFA)
Setaria faberi (SETFA) [8] = experiment: Post-emergence Test, Setaria faberi (SETFA); set-up: key to percentage damage caused to the plant, SETFA (five-point scale): 5=81-100%, 4=61-80%, 3=41-60%, 2=21-40%, 1=0-20% damage
Outline: as §1

[9] = tested on: Echinochloa crus-galli (ECHCG); experiment: Post-emergence Test, Echinochloa crus-galli (ECHCG); set-up: key to percentage damage caused to the plant, ECHCG (five-point scale): 5=81-100%, 4=61-80%, 3=41-60%, 2=21-40%, 1=0-20% damage
Outline: as §1

[10] = tested on: Amaranthus palmeri (AMAPA); experiment: Pre-emergence Test, Amaranthus palmeri (AMAPA)
Zea mays (ZEAMX) [11] = experiment: Post-emergence Test, Zea mays (ZEAMX); set-up: key to percentage damage caused to the plant, ZEAMX (five-point scale): 5=81-100%, 4=61-80%, 3=41-60%, 2=21-40%, 1=0-20% damage
Outline: as §1

Zea mays (ZEAMX) [12] = experiment: Pre-emergence Test, Zea mays (ZEAMX)

SMILES | Pre-emergence Test AMARE, percentage damage caused to the plant (five-point scale) ([1]; 1000 g/ha) | Pre-emergence Test ECHCG, percentage damage caused to the plant (five-point scale) ([2]; 1000 g/ha) | percentage damage caused to the plant, IPOHE (five-point scale) ([3]; 250 g/Ha) | percentage damage caused to the plant, IPOHE (five-point scale) ([3]; 1000 g/ha) | percentage damage caused to the plant, AMARE (five-point scale) ([4]; 250 g/Ha) | percentage damage caused to the plant, AMARE (five-point scale) ([4]; 1000 g/ha) | percentage damage caused to the plant, AMAPA (five-point scale) ([5]; 250 g/Ha) | percentage damage caused to the plant, AMAPA (five-point scale) ([5]; 1000 g/ha) | Pre-emergence Test IPOHE, percentage damage caused to the plant (five-point scale) ([6]; 1000 g/ha) | Pre-emergence Test SETFA, percentage damage caused to the plant (five-point scale) (Setaria faberi (SETFA) [7]; 1000 g/ha) | percentage damage caused to the plant, SETFA (five-point scale) (Setaria faberi (SETFA) [8]; 250 g/Ha) | percentage damage caused to the plant, SETFA (five-point scale) (Setaria faberi (SETFA) [8]; 1000 g/ha) | percentage damage caused to the plant, ECHCG (five-point scale) ([9]; 250 g/Ha) | percentage damage caused to the plant, ECHCG (five-point scale) ([9]; 1000 g/ha) | Pre-emergence Test AMAPA, percentage damage caused to the plant (five-point scale) ([10]; 1000 g/ha) | percentage damage caused to the plant, ZEAMX (five-point scale) (Zea mays (ZEAMX) [11]; 250 g/Ha) | percentage damage caused to the plant, ZEAMX (five-point scale) (Zea mays (ZEAMX) [11]; 1000 g/ha) | Pre-emergence Test ZEAMX, percentage damage caused to the plant (five-point scale) (Zea mays (ZEAMX) [12]; 1000 g/ha) | Pre-emergence Test AMARE, percentage damage caused to the plant (five-point scale) ([1]; 250 g/Ha (*)) | Pre-emergence Test ECHCG, percentage damage caused to the plant (five-point scale) ([2]; 250 g/Ha (*)) | other results
CCOc1cc(C)nn1Cc1cc(=O)c(C(=O)O)c(-c2ccc(Cl)c(Cl)c2)n1CC [Compound 149, 2-(3,4-dichlorophenyl)-6-[(5-ethoxy-3-methyl-pyrazol-1-yl)methyl]-1-ethyl-4-oxo-pyridine-3-carboxylic acid] | 1 (1=0-20%) | 1 (1=0-20%) | 1 (1=0-20%) | 2 (2=21-40%) | 0 | 2 (2=21-40%) | 0 | 1 (1=0-20%) | 0 | 4 (4=61-80%) | 1 (1=0-20%) | 3 (3=41-60%) | 1 (1=0-20%) | 4 (4=61-80%) | 3 (3=41-60%) | 0 | 2 (2=21-40%) | 0 |  |  | 
CCn1c(Cn2ccc(SC)n2)cc(=O)c(C(=O)O)c1-c1ccc(Cl)c(Cl)c1 [Compound 35, 2-(3,4-dichlorophenyl)-1-ethyl-6-[(3-methylsulfanylpyrazol-1-yl)methyl]-4-oxo-pyridine-3-carboxylic acid] | 1 (1=0-20%) | 5 (5=81-100%) | 4 (4=61-80%) | 2 (2=21-40%) |  | 3 (3=41-60%) | 1 (1=0-20%) | 1 (1=0-20%) | 4 (4=61-80%) | 4 (4=61-80%) | 4 (4=61-80%) | 4 (4=61-80%) | 3 (3=41-60%) | 4 (4=61-80%) | 2 (2=21-40%) | 2 (2=21-40%) | 3 (3=41-60%) | 5 (5=81-100%) |  |  | 
CCn1c(Cn2cc(Cl)c(C3CC3)n2)cc(=O)c(C(=O)O)c1-c1ccc(Cl)c(Cl)c1 [Compound 94, 6-[(4-chloro-3-cyclopropyl-pyrazol-1-yl)methyl]-2-(3,4-dichlorophenyl)-1-ethyl-4-oxo-pyridine-3-carboxylic acid] | 1 (1=0-20%) | 2 (2=21-40%) | 0 | 3 (3=41-60%) | 3 (3=41-60%) | 3 (3=41-60%) | 2 (2=21-40%) | 3 (3=41-60%) | 1 (1=0-20%) | 1 (1=0-20%) | 0 | 4 (4=61-80%) | 4 (4=61-80%) | 1 (1=0-20%) | 2 (2=21-40%) | 0 | 0 | 0 | 0 | 2 (2=21-40%) | Pre-emergence Test IPOHE, percentage damage caused to the plant (five-point scale) ([6]; 250 g/Ha (*)): 0; Pre-emergence Test SETFA, percentage damage caused to the plant (five-point scale) (Setaria faberi (SETFA) [7]; 250 g/Ha (*)): 1 (1=0-20%); Pre-emergence Test AMAPA, percentage damage caused to the plant (five-point scale) ([10]; 250 g/Ha (*)): 1 (1=0-20%); Pre-emergence Test ZEAMX, percentage damage caused to the plant (five-point scale) (Zea mays (ZEAMX) [12]; 250 g/Ha (*)): 0
CCn1c(Cn2nc(Cl)cc2C(F)(F)F)cc(=O)c(C(=O)O)c1-c1ccc(Cl)c(Cl)c1 [Compound 104, 6-[[3-chloro-5-(trifluoromethyl)pyrazol-1-yl]methyl]-2-(3,4-dichlorophenyl)-1-ethyl-4-oxo-pyridine-3-carboxylic acid] | 1 (1=0-20%) | 5 (5=81-100%) | 4 (4=61-80%) | 3 (3=41-60%) | 3 (3=41-60%) | 4 (4=61-80%) | 3 (3=41-60%) | 4 (4=61-80%) | 4 (4=61-80%) | 5 (5=81-100%) | 4 (4=61-80%) | 4 (4=61-80%) | 4 (4=61-80%) | 4 (4=61-80%) | 1 (1=0-20%) | 4 (4=61-80%) | 4 (4=61-80%) | 5 (5=81-100%) | 1 (1=0-20%) | 5 (5=81-100%) | Pre-emergence Test IPOHE, percentage damage caused to the plant (five-point scale) ([6]; 250 g/Ha (*)): 1 (1=0-20%); Pre-emergence Test SETFA, percentage damage caused to the plant (five-point scale) (Setaria faberi (SETFA) [7]; 250 g/Ha (*)): 5 (5=81-100%); Pre-emergence Test AMAPA, percentage damage caused to the plant (five-point scale) ([10]; 250 g/Ha (*)): 1 (1=0-20%); Pre-emergence Test ZEAMX, percentage damage caused to the plant (five-point scale) (Zea mays (ZEAMX) [12]; 250 g/Ha (*)): 2 (2=21-40%)
CCn1c(Cn2ccc(C(F)(F)F)n2)cc(=O)c(C(=O)O)c1-c1ccc(F)c(Cl)c1 [Compound 32, 2-(3-chloro-4-fluoro-phenyl)-1-ethyl-4-oxo-6-[[3-(trifluoromethyl)pyrazol-1-yl]methyl]pyridine-3-carboxylic acid] | 3 (3=41-60%) | 5 (5=81-100%) | 4 (4=61-80%) | 2 (2=21-40%) | 1 (1=0-20%) | 4 (4=61-80%) | 2 (2=21-40%) | 2 (2=21-40%) | 3 (3=41-60%) | 5 (5=81-100%) | 4 (4=61-80%) | 4 (4=61-80%) | 3 (3=41-60%) | 4 (4=61-80%) | 4 (4=61-80%) | 1 (1=0-20%) | 3 (3=41-60%) | 4 (4=61-80%) |  |  | 
